Laboratory results taken from US9676771B2, “Compounds for inhibiting drug-resistant strains of HIV-1 integrase” (priority 2013, dated 2017).
Where two headings read alike, the source gives them in different places.

Tests used:
[1] = test system: HIV-1 constructs containing wild-type IN; test: microbe, parasite or virus in culture; assay type: cell-based; settings: for EC50: Human immunodeficiency virus 1, WT IN, read-out: EC50 (nM, WT)
Excerpt: (§1) Single-Round HIV-1 Infectivity Assay.
(§2) Human embryonyl kidney cell culture cell line 293 was acquired from the American type Culture Collection (ATCC).
(§3) The virus-containing supernatants were then harvested, clarified by low-speed centrifugation, filtrated, and diluted for preparation in infection assays. […] Activity was normalized to infectivity in the absence of target compounds. KaleidaGraph (Synergy Software, Reading, Pa.) was used to perform regression analysis on the data. EC50 values were determined from the fit model.

in vitro = assay type: cell-based, human; settings: human, 50% reduction in the level of ATP in HOS cells
Protocol: Cellular Cytotoxicity Assay.
On the day of the screen, cells were treated with compounds at the appropriate concentration range chosen and incubated at 37° C. for 48 hrs. Cytotoxicity was measured by monitoring ATP levels via a luciferase reporter assay. Cells were lysed in 50 μL cell lysis buffer (PerkinElmer, Waltham, Mass.) and shaken at 700 rpm at room temperature for 5 mins After the addition of 50 μL of ATPlite buffer (PerkinElmer) directly onto the lysed cells and shaking at 700 rpm at room temperature for 5 mins, ATP levels were monitored by measuring luciferase activity using a microplate reader. Activity was normalized to cytotoxicity in the absence of target compounds. KaleidaGraph (Synergy Software, Reading, Pa.) was used to perform regression analysis on the data. CC50 values were determined from the fit model.

HIV-1 integrase = HIV-1 integrase (Human immunodeficiency virus type 1 group M subtype B, UniProt P12497); test: biochemical; assay type: biochemical
Protocol: In Vitro Integrase Assay.
Integrase reactions were carried out by adding drugs or an equivalent volume of 100% dimethyl sulfoxide (DMSO; used as the drug solvent) to a mixture of 20 nM DNA and 400 nM integrase in 50 mM morpholinepropanesulfonic acid (pH 7.2), 7.5 mM MgCl2, and 14 mM 2-mercaptoethanol. Reactions were performed at 37° C. for 2 h and quenched by the addition of an equal volume of loading buffer (formamide containing 1% sodium dodecyl sulfate, 0.25% bromophenol blue, and xylene cyanol). […] Dried gels were visualized using a Typhoon 8600 (GE Healthcare, Piscataway, N.J.). Densitometric analyses were performed using ImageQuant 5.1 software from GE Healthcare.

[2] = test system: HIV-1 constructs containing mutant IN G140S-Q148H; test: microbe, parasite or virus in culture; assay type: cell-based; settings: Human immunodeficiency virus 1
Excerpt: as §1, §2, §3
(§4) pNLNgoMIVR^−ΔEnv.LUC has been described previously (Zhao et al. 2008). The integrase codon reading frame was removed from pNLNgoMIVR^−ΔEnv LUC (between KpnI and SalI sites) and placed between the KpnI and SalI sites of pBluescript II KS+. Using that construct as the wild-type template, we prepared the following HIV-1 Integrase-resistant mutants via the QuikChange II XL (Stratagene, La Jolla, Calif.) site-directed mutagenesis protocol: H51Y, T66I, E92Q, G118R, Y143R, Q148H, Q148K, N155H, R263K, G140S+Q148H, G140A+Q148K, E138K+Q148K, and H51Y+R263K. The following sense with cognate antisense (not shown) oligonucleotides (Integrated DNA Technologies, Coralville, Iowa) were used in the mutagenesis: H51Y, 5′-[…]-3; T66I, 5′-[…]-3′; E92Q, 5′-[…]-3′; G118R, 5′-[…]-3′; E138K, 5′-[…]-3; G140A, 5′-[…]-3; G140S, 5′-[…]-3′; Y143R, 5′-[…]-3′; Q148H, 5′-[…]-3′; Q148K, 5′-[…]-3; N155H, 5′-[…]-3′; R263K 5′-[…]-3′. The double mutation G140S+Q148H was constructed by using the previously generated Q148H mutant and the appropriate oligonucleotide for the 2nd mutation, G140S. The double mutation G140A+Q148K was made by using the Q148K mutant and the appropriate oligonucleotide for the 2nd mutation, G140A. The double mutation E138K+Q148K was made by using the Q148K mutant and the appropriate oligonucleotide for the 2nd mutation, E138K. The double mutation H51Y+R263K was constructed by using the previously generated H51Y mutant and the appropriate oligonucleotides for the 2nd mutation, R263K. The DNA sequence of each construct was verified independently by DNA sequence determination. […] These DNA sequences were additionally checked independently by DNA sequence determination.

[3] = test system: HIV-1 constructs containing mutant IN Y143R; test: microbe, parasite or virus in culture; assay type: cell-based; settings: Human immunodeficiency virus 1
Excerpt: as §1, §2, §3, §4

[4] = test system: HIV-1 constructs containing mutant IN N155H; test: microbe, parasite or virus in culture; assay type: cell-based; settings: Human immunodeficiency virus 1
Excerpt: as §1, §2, §3, §4

[5] = Table 4, 3′-processing, read-out: IC50 (3^+-Processing)
[6] = Table 4, strand transfer, read-out: IC50 (Strand Transfer)
[7] = Table 3, G140S-Q148H double mutant, read-out: EC50 (nM, IN Mutants) SH
[8] = Table 3, read-out: EC50 (nM, IN Mutants) Y143R
[9] = Table 3, read-out: EC50 (nM, IN Mutants) N155H
[10] = Table 10, strand transfer, read-out: IC50 (nM, ST)
[11] = Table 8, read-out: EC50 (nM, IN mutants) G140S/Q148H
[12] = Table 8, read-out: EC50 (nM, IN mutants) Y143R
[13] = Table 8, read-out: EC50 (nM, IN mutants) N155H
[14] = Table 7, 3′-processing, read-out: IC50 (μM) 3′-P
[15] = Table 7, strand transfer, read-out: IC50 (μM) ST

Structure (SMILES) | EC50 ([1]; Table 3) [nM] | CC50 (in vitro; Table 3) [nM] | IC50 (HIV-1 integrase; [5]) [nM] | IC50 (HIV-1 integrase; [6]) [nM] | EC50 [2, 7] [nM] | EC50 [3, 8] [nM] | EC50 [4, 9] [nM] | EC50 ([1]; Table 8) [nM] | CC50 (in vitro; Table 8) [nM] | EC50 [2, 11] [nM] | EC50 [3, 12] [nM] | EC50 [4, 13] [nM] | IC50 (HIV-1 integrase; [14]) [nM] | IC50 (HIV-1 integrase; [15]) [nM] | also measured
O=C(NCc1ccc(F)cc1F)c1c(N2CCOCC2)c2cccnc2n(O)c1=O [XZ373, N-(2,4-difluorobenzyl)-1-hydroxy-4-morpholino-2-oxo-1,2-dihydro-1,8-naphthyridine-3-carboxamide] | 1200 ± 260 | 8400 ± 3200 | 77000 ± 12000 | 79 ± 13 | 6920 ± 2 | 1800 ± 870 | 3730 ± 920 |  |  |  |  |  |  |  | Si (selectivity index) ([1]; Table 3, ratio of CC50 to EC50): 7
CS(=O)(=O)CCc1cnc2c(c1)c(N)c(C(=O)NCc1ccc(F)cc1F)c(=O)n2O [XZ445, 4-Amino-N-(2,4-difluorobenzyl)-1-hydroxy-6-(2-(methylsulfonyl)ethyl)-2-oxo-1,2-dihydro-1,8-naphthyridine-3-carboxamide] |  |  |  |  |  |  |  | 27 | 95400 | 118 | 27.5 | 32.8 |  |  | IC50 (HIV-1 integrase; [10]): ~0.07 nM
Nc1c(C(=O)NCc2ccc(F)cc2F)c(=O)n(O)c2ncc(CCC(=O)O)cc12 [XZ444, 3-(5-Amino-6-((2,4-difluorobenzyl)carbamoyl)-8-hydroxy-7-oxo-7,8-dihydro-1,8-naphthyridin-3-yl)propanoic acid] |  |  |  |  |  |  |  | 1.9 | > 250000 | 195 | 4.9 | 10.3 |  |  | IC50 (HIV-1 integrase; [10]): 3.9 ± 1.3 nM
CN(C)c1c(C(=O)NCc2ccc(F)cc2F)c(=O)n(O)c2ncccc12 [XZ372, N-(2,4-difluorobenzyl)-4-(dimethylamino)-1-hydroxy-2-oxo-1,2-dihydro-1,8-naphthyridine-3-carboxamide] | 268 ± 8.03 | 13000 ± 1800 | 21000 ± 2000 | 87 ± 12 | 6800 ± 0.4 | 273 ± 51.7 | 2300 ± 700 |  |  |  |  |  |  |  | Si (selectivity index) ([1]; Table 3, ratio of CC50 to EC50): 49
CN(C)CCCc1cnc2c(c1)c(N)c(C(=O)NCc1ccc(F)cc1F)c(=O)n2O [XZ425, 4-Amino-N-(2,4-difluorobenzyl)-6-(3-(dimethylamino)propyl)-1-hydroxy-2-oxo-1,2-dihydro-1,8-naphthyridine-3-carboxamide] |  |  |  |  |  |  |  | 6.07 | 5000 | 31.7 | 7 ± 2.3 | 29.4 | 3000 ± 400 | 14.3 ± 2.2 | 
Nc1c(C(=O)NCc2ccc(F)cc2F)c(=O)n(O)c2ncc(CCCOCCO)cc12 [XZ432, 4-Amino-N-(2,4-difluorobenzyl)-1-hydroxy-6-(3-(2-hydroxyethoxy)propyl)-2-oxo-1,2-dihydro-1,8-naphthyridine-3-carboxamide] |  |  |  |  |  |  |  | 1.6 | > 250000 | 35.3 | 1.2 | 4.2 | 1500 ± 400 | 2.5 ± 0.4 | 
O=C(NCc1ccc(F)cc1F)c1c(NC2CCCCCC2)c2cccnc2n(O)c1=O [XZ376, 4-(cycloheptylamino)-N-(2,4-difluorobenzyl)-1-hydroxy-2-oxo-1,2-dihydro-1,8-naphthyridine-3-carboxamide] | 12.2 ± 2.9 | 68700 ± 8700 | 13100 ± 1100 | 460 ± 180 | 35 ± 11.7 | 6.6 ± 1.7 | 13.7 ± 3.8 |  |  |  |  |  |  |  | Si (selectivity index) ([1]; Table 3, ratio of CC50 to EC50): 4,804
Nc1c(C(=O)NCc2ccc(F)cc2F)c(=O)n(O)c2ncc(CCS(=O)(=O)CCN3CCOCC3)cc12 [XZ447, 4-Amino-N-(2,4-difluorobenzyl)-1-hydroxy-6-(2-((2-morpholinoethyl)sulfonyl)ethyl)-2-oxo-1,2-dihydro-1,8-naphthyridine-3-carboxamide] |  |  |  |  |  |  |  | 268 | > 250000 | 412 | 109 | 140 |  |  | IC50 (HIV-1 integrase; [10]): 2.5 ± 1.3 nM
Nc1c(C(=O)NCc2ccc(F)cc2F)c(=O)n(O)c2ncc(-c3ccccc3)cc12 [XZ420, 4-Amino-N-(2,4-difluorobenzyl)-1-hydroxy-2-oxo-6-phenyl-1,2-dihydro-1,8-naphthyridine-3-carboxamide] |  |  |  |  |  |  |  | 3.4 ± 0.7 | 184000 | 39.6 | 3.7 | 18.7 | 17900 ± 1600 | 1.6 ± 0.3 | 
O=C(NCc1ccc(F)cc1F)c1c(O)c2cc(CCCCCO)cnc2n(O)c1=O [XZ421, N-(2,4-Difluorobenzyl)-1,4-dihydroxy-6-(5-hydroxypentyl)-2-oxo-1,2-dihydro-1,8-naphthyridine-3-carboxamide] |  |  |  |  |  |  |  | 23.7 | > 250000 | 28.5 | 8.3 | 31.6 | 14300 ± 1100 | 12.4 ± 2.6 | 
O=C(NCc1ccc(F)cc1F)c1cc2cccnc2n(O)c1=O [XZ390, N-(2,4-difluorobenzyl)-1-hydroxy-2-oxo-1,2-dihydro-1,8-naphthyridine-3-carboxamide] | 5.1 ± 1.9 | > 250000 |  |  | 438 ± 121 | 4.9 ± 0.77 | 134 ± 23 |  |  |  |  |  |  |  | Si (selectivity index) [1]: >25,000; IC50 (HIV-1 integrase; Table 1, 3′-processing, read-out: IC50 Values 3′-Processing): 6100 ± 800 nM; IC50 (HIV-1 integrase; Table 1, strand transfer, read-out: IC50 Values Strand transfer): 41 ± 12 nM
COc1ccc2c(N)c(C(=O)NCc3ccc(F)cc3F)c(=O)n(O)c2n1 [XZ406, 4-amino-N-(2,4-difluorobenzyl)-1-hydroxy-7-methoxy-2-oxo-1,2-dihydro-1,8-naphthyridine-3-carboxamide] |  |  | 18000 ± 2000 | 11 ± 2 |  |  |  |  |  |  |  |  |  |  | EC50 ([1]; Table 5): 30.3 ± 9.1 nM; SI ([1]; Table 5, ratio of CC50 to EC50): 73; CC50 (in vitro; Table 5): 2200 ± 430 nM; EC50 ([2]; Table 5, G1405-Q148H double mutant, read-out: EC50 (nM, IN Mutants) SH): 3600 ± 1600 nM; EC50 ([3]; Table 5, read-out: EC50 (nM, IN Mutants) Y143R): 62.2 ± 25.6 nM; EC50 ([4]; Table 5, read-out: EC50 (nM, IN Mutants) N155H): 400 ± 101 nM
Nc1c(C(=O)NCc2ccc(F)cc2F)c(=O)n(O)c2ncc(CCCCCCOC(=O)c3ccccc3)cc12 [XZ427, 6-(5-Amino-6-((2,4-difluorobenzyl)carbamoyl)-8-hydroxy-7-oxo-7,8-dihydro-1,8-naphthyridin-3-yl)hexyl benzoate] |  |  |  |  |  |  |  | 4.8 | 14400 | 21 | 3.5 | 5.4 | 143000 ± 14000 | 3340 ± 557 | 
